Experimental data taken from patent US8940719B2, “Lithocholic acid analogues that inhibit sialyltransferase” (Academia Sinica, priority 2006, dated 2015).
Like-named read-outs stand apart in the source and are kept apart here.

How the values were obtained:
Rat liver α-2,3-ST = Rat liver α-2,3-ST (Rattus norvegicus (Rat), UniProt Q02734); assay: α-2,3-ST inhibition assay (IC50), RP-HPLC of sialylated disaccharide product; format: biochemical; settings: for fold potency increase over 19: vs compound 19
Procedure: Compound synthesis was carried out with the following materials according the following general procedures. All chemicals and buffers were purchased from Sigma, Aldrich, or Acros Organics; and all amino acids were purchased from Advanced Chemtech. CMP-Neu5Ac was synthesized starting with sialic acid (Traving & Schauer, Cell. Mol. Life Sci., 1998, 54:1330; Schwarzkopf et al., Proc. Natl. Acad. Sci. USA, 2002, 99:5267). Synthesis of lactose acceptor was achieved as described in Harduin-Lepers et al., Biochimie, 2001, 83:727. Rat liver α-2,3-ST was obtained from CalBiochem at a concentration of 3.7 mU/μL, stored at −80° C., and used within one week. Melting points (m.p.) were recorded with a capillary melting point apparatus (Electrothermal MEL-TEMP); FT-IR spectra were recorded with Perkin Elmer FT-IR Spectrometer (Paragon 1000) in KBr pellets; ^1H and ^13C NMR spectra were recorded with Bruker AMX400 or 500 MHz instruments. Proton chemical shifts (δ) are reported in parts per million (ppm) relative to the methine singlet at 7.24 ppm for the residual CHCl3 in the deuteriochloroform, or the methyl pentet at 3.30 ppm for the residual CHD2OD in the methanol-d4. Carbon chemical shifts are reported in ppm relative to the internal ^13C signals in CDCl3 (77.0 ppm) and CD3OD-d4 (49.0 ppm). Mass spectra were obtained with a FAB JMS-700 double focusing mass spectrometer (JEOL, Tokyo, Japan), MALDI Voyager DE-PRO (Applied Biosystem Houston, USA), and ESI Finnigan LCQ mass spectrometer (Thermo Finnigan, San Jose, Calif., United States) in negative mode. […] The separation procedure was performed using H2O/0.1% trifluoroacetic acid (TFA) (A) and CH3CN/0.05% TFA (B) as eluents.
Each compound was tested for α-2,3-ST inhibition using CMP-Neu5Ac as a substrate and a modified disaccharide with a 4,5-dimethoxy-2-nitrobenzyl group as a UV-labeled acceptor. Specifically, inhibition assays were performed in triplicate in reaction solution containing 200 mM MES buffer, 100 mM sodium chloride, 0.5 mM disodium-EDTA, 0.01% Triton X-100, 20 μM modified disaccharide, 1.4 mU α-2,3-ST and inhibitor (in dimethyl sulfoxide) in a total volume of 55. Reactions were incubated at 37° C. for 10 minutes at which point 1 mM CMP-Neu5Ac (to a final concentration 3 μM) was added. The solution was then incubated at 37° C. until a detectable amount of product was produced. The reaction was terminated by quenching the solution mixture with heat at 100° C. for 5 minutes. Enzyme activity was determined by monitoring the quantity of sialylated disaccharide product produced over time at 348 nm by RP-HPLC (Supelco Discovery® HS C18, 5 μm, 4.6 mm×25 cm).

CL1-5 lung cancer cells = assay: Cytotoxicity / cell growth, trypan blue exclusion; format: cell-based; settings: 5 μM or 10 μM, 48 hours, FBS-free media
Procedure: To determine the effect of the synthesized membrane-permeable α-2,3-ST inhibitors disclosed in Example 1 on cellular processes, in vitro cytotoxicity and adhesion assays were performed on the highly metastatic lung cancer cell line CL1-5. CL1-5 cells were plated at 1×10^6 cells per 60 mm culture dish in DMEM containing 10% fetal bovine serum (FBS) in 5% CO2. The following day the media was replaced with FBS-free media containing inhibitors at 5 μM or 10 μM concentration in DMSO. Controls cells were treated with 0.1% DMSO-containing medium without inhibitor. Cell number and viability were determined 48 hours later by trypan blue exclusion. Treatment with three α-2,3-ST inhibitors, N-Pentyonic (compound 21), Lith-Triethyl-de (compound 20), and Lith-o-Asp (compound 13), inhibited CL1-5 cell growth by between 10-20% compared to control (FIG. 2A).

[1] = α-2,3-ST, CMP-Neu5Ac substrate, triplicate, read-out: IC50

Chain of Rat liver α-2,3-ST (Q02734 whole entry): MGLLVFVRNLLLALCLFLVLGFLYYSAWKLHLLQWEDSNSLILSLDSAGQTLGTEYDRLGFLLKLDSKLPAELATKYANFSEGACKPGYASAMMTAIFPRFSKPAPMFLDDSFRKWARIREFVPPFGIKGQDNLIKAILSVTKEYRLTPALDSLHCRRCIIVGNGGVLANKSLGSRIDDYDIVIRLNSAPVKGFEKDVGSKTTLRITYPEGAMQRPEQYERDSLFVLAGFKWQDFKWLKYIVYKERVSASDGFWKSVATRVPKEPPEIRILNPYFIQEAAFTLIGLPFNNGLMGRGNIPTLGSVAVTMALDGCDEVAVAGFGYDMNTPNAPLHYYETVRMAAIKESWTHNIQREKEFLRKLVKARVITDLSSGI

| SMILES | IC50 (Rat liver α-2,3-ST; [1]) [mM] | further results |
| --- | --- | --- |
| C[C@H](CCCO)C1CC[C@H]2C3CC[C@@H]4C[C@H](O)CC[C@]4(C)C3CC[C@]12C (stereo partly drawn) [Compound 7, (3R,5R,10S,13R,14S)-17-((R)-5-hydroxypentan-2-yl)-10,13-dimethyl-hexadecahydro-1H-cyclopenta[a]phenanthren-3-ol] | 0.351 | fold decrease in potency relative to lithocholic acid (Rat liver α-2,3-ST; vs lithocholic acid): 5 to 17 fold |
| C[C@H](CCCOP(=O)(Oc1ccccc1)Oc1ccccc1)C1CC[C@H]2C3CC[C@@H]4C[C@H](O)CC[C@]4(C)C3CC[C@]12C (stereo partly drawn) [Compound 8, (R)-4-((3R,5R,10S,13R,14S)-3-hydroxy-10,13-dimethyl-hexadecahydro-1H-cyclopenta[a]phenanthren-17-yl)pentyl diphenyl phosphonate] | > 0.1 | fold decrease in potency relative to lithocholic acid (Rat liver α-2,3-ST; vs lithocholic acid): 5 to 17 fold |
| C[C@H](CCC(=O)NCC(=O)O)C1CC[C@H]2C3CC[C@@H]4C[C@H](O)CC[C@]4(C)C3CC[C@]12C (stereo partly drawn) [Compound 9, 2-((R)-4-((3R,5R,10S,13R,14S)-3-hydroxy-10,13-dimethyl-hexadecahydro-1H-cyclopenta[a]phenanthren-17-yl)pentanamido)acetic acid] | 0.025 |  |
| C[C@H](CCC(=O)N[C@@H](CC(=O)O)C(=O)O)C1CC[C@H]2C3CC[C@@H]4C[C@H](O)CC[C@]4(C)C3CC[C@]12C (stereo partly drawn) [Compound 10, (S)-2-((R)-4-((3R,5R,10S,13R,14S)-3-hydroxy-10,13-dimethyl-hexadecahydro-1H-cyclopenta[a]phenanthren-17-yl)pentanamido)succinic acid] | 0.016 |  |
| C[C@H](CCC(=O)O)C1CC[C@H]2C3CC[C@@H]4CC(=O)CC[C@]4(C)C3CC[C@]12C (stereo partly drawn) [Compound 11, (R)-4-((5R,10S,13R,14S)-10,13-dimethyl-3-oxo-hexadecahydro-1H-cyclopenta[a]phenanthren-17-yl)pentanoic acid] | 0.139 | fold decrease in potency relative to lithocholic acid (Rat liver α-2,3-ST; vs lithocholic acid): 7 fold |
| C[C@H](CCC(=O)O)C1CC[C@H]2C3CC[C@@H]4C[C@H](OC(=O)CCC(=O)O)CC[C@]4(C)C3CC[C@]12C (stereo partly drawn) [Compound 12, (R)-4-((3R,5R,10S,13R,14S)-3-(3-carboxypropanoyloxy)-10,13-dimethyl-hexadecahydro-1H-cyclopenta[a]phenanthren-17-yl)pentanoic acid] | 0.012 | fold potency over lithocholic acid (Rat liver α-2,3-ST; vs lithocholic acid): 2 fold |
| C[C@H](CCC(=O)OC(C)(C)C)C1CC[C@H]2C3CC[C@@H]4C[C@H](OC(=O)CCC(=O)O)CC[C@]4(C)C3CC[C@]12C (stereo partly drawn) [Compound 14, 4-((3R,5R,10S,13R,14S)-17-((R)-5-tert-butoxy-5-oxopentan-2-yl)-10,13-dimethyl-hexadecahydro-1H-cyclopenta[a]phenanthren-3-yloxy)-4-oxobutanoic acid] | 0.013 |  |
| C[C@H](CCC(=O)NCC(=O)O)C1CC[C@H]2C3CC[C@@H]4C[C@H](OC(=O)CCC(=O)O)CC[C@]4(C)C3CC[C@]12C (stereo partly drawn) [Compound 15, 4-((3R,5R,10S,13R,14S)-17-((R)-5-(carboxymethylamino)-5-oxopentan-2-yl)-10,13-dimethyl-hexadecahydro-1H-cyclopenta[a]phenanthren-3-yloxy)-4-oxobutanoic acid] | 0.022 |  |
| C[C@H](CCC(=O)N[C@@H](CC(=O)O)C(=O)O)C1CC[C@H]2C3CC[C@@H]4C[C@H](OC(=O)CCC(=O)O)CC[C@]4(C)C3CC[C@]12C (stereo partly drawn) [Compound 16, (S)-2-((R)-4-((3R,5R,10S,13R,14S)-3-(3-carboxypropanoyloxy)-10,13-dimethyl-hexadecahydro-1H-cyclopenta[a]phenanthren-17-yl)pentanamido)succinic acid] | 0.018 |  |
| C[C@H](CCC(=O)O)C1CC[C@H]2C3CC[C@@H]4C[C@H](OC(=O)[C@H](N)CC(=O)O)CC[C@]4(C)C3CC[C@]12C (stereo partly drawn) [Compound 17, (R)-4-((3R,5R,10S,13R,14S)-3-((R)-2-amino-3-carboxypropanoyloxy)-10,13-dimethyl-hexadecahydro-1H-cyclopenta[a]phenanthren-17-yl)pentanoic acid] | 0.006 | fold improvement in potency over 13 (Rat liver α-2,3-ST; vs compound 13): 2 fold |
| C[C@H](CCCn1cc(CCO)nn1)C1CC[C@H]2C3CC[C@@H]4C[C@H](O)CC[C@]4(C)C3CC[C@]12C (stereo partly drawn) [Compound 18, (3R,5R,10S,13R,14S)-17-((R)-5-(4-(2-hydroxyethyl)-1H-1,2,3-triazol-1-yl)pentan-2-yl)-10,13-dimethyl-hexadecahydro-1H-cyclopenta[a]phenanthren-3-ol] | > 0.1 | fold less potent than 21 (Rat liver α-2,3-ST; vs compound 21): at least 10 fold; fold less potent than 22 (Rat liver α-2,3-ST; vs compound 22): ≥ 20 fold |
| C[C@H](CCCn1cc(CC(N)C(=O)O)nn1)C1CC[C@H]2C3CC[C@@H]4C[C@H](O)CC[C@]4(C)C3CC[C@]12C (stereo partly drawn) [Compound 19, 2-amino-3-(1-((R)-4-((3R,5R,10S,13R,14S)-3-hydroxy-10,13-dimethyl-hexadecahydro-1H-cyclopenta[a]phenanthren-17-yl)pentyl)-1H-1,2,3-triazol-4-yl)propanoic acid] | 0.083 |  |
| CCOP(=O)(OCC)C(Cc1cn(CCC[C@@H](C)C2CC[C@H]3C4CC[C@@H]5C[C@H](O)CC[C@]5(C)C4CC[C@]23C)nn1)C(=O)O (stereo partly drawn) [Compound 20, 2-(diethoxyphosphoryl)-3-(1-((R)-4-((3R,5R,10S,13R,14S)-3-hydroxy-10,13-dimethyl-hexadecahydro-1H-cyclopenta[a]phenanthren-17-yl)pentyl)-1H-1,2,3-triazol-4-yl)propanoic acid] | 0.007 | fold potency increase over 19 (Rat liver α-2,3-ST): 8-12 fold; inhibition of CL1-5 cell growth compared to control (CL1-5 lung cancer cells): 10-20% |
| C[C@H](CCCn1cc(CCC(=O)O)nn1)C1CC[C@H]2C3CC[C@@H]4C[C@H](O)CC[C@]4(C)C3CC[C@]12C (stereo partly drawn) [Compound 21, 3-(1-((R)-4-((3R,5R,10S,13R,14S)-3-hydroxy-10,13-dimethyl-hexadecahydro-1H-cyclopenta[a]phenanthren-17-yl)pentyl)-1H-1,2,3-triazol-4-yl)propanoic acid] | 0.01 | fold potency increase over 19 (Rat liver α-2,3-ST): 8-12 fold; inhibition of CL1-5 cell growth compared to control (CL1-5 lung cancer cells): 10-20% |
| C[C@H](CCC(=O)O)[C@H]1CC[C@H]2[C@@H]3CC[C@@H]4C[C@H](O)CC[C@]4(C)[C@H]3CC[C@]12C [lithocholic acid] |  | IC50 (Rat liver α-2,3-ST; steroid screen for α-2,3-ST inhibition, unit mM, read-out: IC50 value): 0.021 mM |
